Test results published in the supplement of paper PMC5908809.

Assays:
[1] = system: normal NK cells expanded with K562-aAPC; assay: drug sensitivity score (DSS) (DSS units); higher = more sensitive; extreme values may be limits of the assay; settings: 72 h; IL-2 2.5 ng/mL
Procedure: (§1)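 Drug sensitivity and resistance testing on K562-aAPC-expanded normal NK cells: 5 concentrations (10-fold steps over a 10,000-fold range), 72 h at 37 °C, viability by CellTiter-Glo normalised to DMSO and benzethonium chloride controls; DSS from the fitted curve.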

[2] = system: IMC-1 (IL-2 20 ng/mL); assay: percent inhibition of viability; higher = more inhibition; settings: 72 h
[3] = system: KAI3 (IL-2 2.5 ng/mL); assay: as above; settings: 72 h
[4] = system: normal primary NK cells, pool 1 (3 donors) (IL-2 2.5 ng/mL); assay: as above; settings: 72 h
[5] = system: KHYG-1 (IL-2 2.5 ng/mL); assay: as above; settings: 72 h
[6] = system: SNK-6 (IL-2 2.5 ng/mL); assay: as above; settings: 72 h
[7] = system: NK-YS (IL-2 2.5 ng/mL); assay: as above; settings: 72 h
[8] = system: normal primary NK cells, pool 3 (3 donors) (IL-2 2.5 ng/mL); assay: as above; settings: 72 h
[9] = system: normal primary NK cells, pool 1 (3 donors), resting (IL-2 0 ng/mL); assay: as above; settings: 72 h
[10] = system: normal primary NK cells, pool 2 (3 donors) (IL-2 2.5 ng/mL); assay: as above; settings: 72 h
[11] = system: NK-92 (IL-2 2.5 ng/mL); assay: as above; settings: 72 h
[12] = system: DERL-7 (IL-2 2.5 ng/mL); assay: as above; settings: 72 h
[13] = system: YT (IL-2 2.5 ng/mL); assay: as above; settings: 72 h
[14] = system: NKL (IL-2 2.5 ng/mL); assay: as above; settings: 72 h
[15] = system: IMC-1 (IL-2 20 ng/mL); assay: drug sensitivity score (DSS) (DSS units); higher = more sensitive; extreme values may be limits of the assay; settings: 72 h
[16] = system: KAI3 (IL-2 2.5 ng/mL); assay: as above; settings: 72 h
[17] = system: normal primary NK cells, pool 1 (3 donors) (IL-2 2.5 ng/mL); assay: as above; settings: 72 h
[18] = system: KHYG-1 (IL-2 2.5 ng/mL); assay: as above; settings: 72 h
[19] = system: SNK-6 (IL-2 2.5 ng/mL); assay: as above; settings: 72 h
[20] = system: NK-YS (IL-2 2.5 ng/mL); assay: as above; settings: 72 h
[21] = system: normal primary NK cells, pool 3 (3 donors) (IL-2 2.5 ng/mL); assay: as above; settings: 72 h
[22] = system: normal primary NK cells, pool 1 (3 donors), resting (IL-2 0 ng/mL); assay: as above; settings: 72 h
[23] = system: normal primary NK cells, pool 2 (3 donors) (IL-2 2.5 ng/mL); assay: as above; settings: 72 h
[24] = system: NK-92 (IL-2 2.5 ng/mL); assay: as above; settings: 72 h
[25] = system: DERL-7 (IL-2 2.5 ng/mL); assay: as above; settings: 72 h
[26] = system: YT (IL-2 2.5 ng/mL); assay: as above; settings: 72 h
[27] = system: NKL (IL-2 2.5 ng/mL); assay: as above; settings: 72 h
[28] = system: normal NK cells expanded with K562-aAPC; assay: percent inhibition of viability; higher = more inhibition; settings: 72 h, IL-2 2.5 ng/mL
Procedure: as §1

O=C(c1ccc(/C=C/c2n[nH]c3ccccc23)cc1)N1CCNCC1 [KW-2449] (max concentration tested 2500 nM)
Settings | drug sensitivity score
[1] | 1.2
[15] | 0.89
[16] | 0.03
[17] | 0.65
[18] | 3.4
[19] | 4.22
[20] | 2.28
[21] | 0.89
[22] | 0
[23] | 0.03
[24] | 0.25
[25] | 2.35
[26] | 0
[27] | 0

percent inhibition of viability [%]
Settings | 0.25 nM | 2.5 nM | 25 nM | 250 nM | 2500 nM
[2] | -4.33 | -2.55 | -3.12 | -4.5 | -8.66
[3] | -7.2 | -3.33 | -4.86 | -5.15 | 12.8
[4] | 0.56 | -11.2 | -7.09 | -3.29 | 23.3
[5] | -4.37 | -3.8 | -7.48 | -0.63 | 63.4
[6] | 11.8 | 9.47 | 14.2 | 3.56 | 67.5
[7] | -5.66 | -7.24 | -6.03 | 0.88 | 42.9
[8] | -10.8 | -6.97 | -9.8 | -18.2 | -0.01
[9] | -12.6 | 0.69 | -21.6 | -1.76 | -0.59
[10] | 0.9 | -1.16 | -5.56 | -9.38 | 13.4
[11] | -17.7 | -18 | -20.5 | -12.6 | 18.9
[12] | -3.07 | -3.42 | -0.35 | -5.82 | 52
[13] | 0.95 | 1.96 | -2.99 | -1.32 | 9
[14] | -16.7 | -15.7 | -8.73 | -17 | 8.68
[28] | 1.55 | -7.82 | -4.83 | -5.26 | 33
